In patent US10684290B2, “LKB1 related diagnostics and treatments of cancer” (Dignity Health, priority 2014, dated 2020):

Experiments:
[1] = tested on: H23-KDLKB1 and H23-LKB1 NSCLC cells; assay: Immunoblot of BiP and CHOP in H23-LKB1 and H23-KDLKB1 cells; type: cell-based, human; settings: 18 h; or bortezomib (40 nM)
Method: (§1) Cells were washed once with ice-cold PBS and incubated on ice for 30 min with a lysis buffer containing 10 mM Tris-HCl, 150 mM NaCl, 0.1% SDS and 1% IGEPAL (Sigma) to which a protease inhibitor cocktail (Sigma) and two phosphatase cocktails I and II (Sigma) were added immediately before use. Lysates were transferred to tubes and insoluble material was pelleted by centrifugation. For immunoblotting, 50-100 μg of total protein lysates were separated by SDS-PAGE and transferred to nitrocellulose. Blots were blocked in 5% milk/Tris buffered saline/0.1% TWEEN® 20 (polyoxyethylenesorbitan monolaurate) (TBST) and primary antibodies were diluted in 5% Bovine Serum Albumin (Sigma)/TBST and incubated overnight at 4° C. Blots were developed with ECL plus (GE) and visualized on a Kodak Image station.

[2] = tested on: H23-KDLKB1 and H23-LKB1 cells; assay: Clonogenic survival of H23-LKB1 and H23-KDLKB1 cells; type: cell-based, human; settings: 24 h treatment, colonies after 14 days
Method: (§2) Clonogenic survival assay were performed in 6 well dishes. Briefly, 300-500 cells were plated per well and allowed to attach overnight. Drugs were diluted fresh into media and cells were treated for 24 hours. Drug containing media was removed and replaced with fresh media. After 14 days, cells were fixed in 10% Methanol/10% Acetic Acid and stained with 0.5% crystal violet. After washing in ddH2O, plates were allowed to dry and colonies of 50 cells or more were counted. The surviving fraction was calculated according to methods described by Franken, et al.
as §2, with “200 of indicated” for “300-500”, “Were indicated cells were pre-treated with 125 ng/ml of cyclohexamide (CHX) for one hour. Indicated drugs” for “Drugs”, “h, at which time the drug” for “hours. Drug”, “Franken” for “Franken,”, “al. [Clonogenic assay of cells in vitro, NAT. PROT. 1 (5) (2006) 2315-2319].” for “al.”

AMPK, H2009 LA cells = assay: Immunoblot of BiP and CHOP in H2009 cells with AMPK inhibitor before 2DG; type: cell-based, human; design: dose or concentration left out as unconfirmed; settings: H2009 cells treated with Compound C
Method: Cells were incubated on ice for 30 minutes with a lysis buffer containing 10 mM Tris-HCL, 150 mM NaCl, 0.1% SDS and 1% IGEPAL (Sigma). Immediately before use, a protease inhibitor cocktail (Sigma) and two phosphatase cocktails I and II (Sigma) were added to the lysis buffer. Lysates were transferred to tubes and insoluble material was pelleted by centrifugation. Nuclear protein fractions were isolated using a NE-PER protein extraction kit (ThermoFisher) according to manufacturer's instructions. Protein concentration was determined using the Bio-Rad DC protein kit. For immunoblotting, 50-100 ug of total protein lysates was separated by SDS-PAGE and transferred to nitrocellulose. Blots were blocked in 5% milk/Tris buffered saline/0.1% TWEEN® 20 (polyoxyethylenesorbitan monolaurate) (TBST) and primary antibodies were diluted in 5% Bovine Serum Albumin (Sigma)/TBST and incubated overnight at 4° C. Blots were developed with ECL plus (GE) and visualized on a Kodak Image station.

[3] = tested on: H838-KDLKB1 and H838-LKB1 cells; assay: Flow cytometry of ROS levels (CellROX staining); type: cell-based, human; settings: CellROX FACS, 12 h; 2DG 10 mM, Tm 1.25 μg/ml, BFA 30 ng/ml; baseline difference 1.4-fold
Method: To analyze levels of reactive oxygen species (ROS), 1×10^6 H838-KDLKB1 and H838-LKB1 cells were plated and treated with the indicated drugs. Cells were then stained with 0.5 1M CellRox™ for 30 min at 37° C., collected by trypsinization and washed with PBS. Following fixation with 2% Paraformaldehyde/PBS for 20 min, cells were brought to a final volume of 500 ll in PBS. CellRox™ staining of ROS was assessed using the Accuri C6 Flow Cytometer (BD Biosciences, San Jose, Calif., USA) with the threshold set at 80,000. A total of 30,000 events were collected per sample and ROS staining intensity determined using FCS Express 4 Flow Cytometer software. Background events were gated out using unstained control. Histogram plots were overlaid and histogram subtraction was performed by subtracting the integral of the stained control from the treated sample.

H838-KDLKB1 cells = assay: Clonogenic survival of H838-LKB1 and H838-KDLKB1 cells; type: cell-based, human; settings: 24 h; 2DG 10 mM, Tm 1.25 μg/ml, BFA 30 ng/ml
Method: as §2, with “200 of indicated” for “300-500”, “Were indicated cells were pre-treated with 125 ng/ml of cyclohexamide (CHX) for one hour. Indicated drugs” for “Drugs”, “h, at which time the drug” for “hours. Drug”, “Franken” for “Franken,”, “al. [Clonogenic assay of cells in vitro, NAT. PROT. 1 (5) (2006) 2315-2319].” for “al.”

[4] = tested on: A427-KDLKB1 and A427-LKB1 cells; assay: ATP measurement/cell viability (CellTiter-Glo), A427; type: cell-based, human; settings: 48 h; 2DG 10 mM, Tm 1.25 μg/ml, BFA 30 ng/ml; p<0.005
Method: (§3) 500 H838 or A427 cells stably expressing either LKB1 or KDLKB1 were plated in 96 well plates. The following day, cells were dosed with the indicated treatments for 48 h. Cellular ATP levels were assessed using the CellTiter-Glo Luminescent Cell Viability Assay substrate (Promega) according to manufacturer's instructions. Luminescence was read using the DTX 880 Multimode Detector. Cellular ATP/cell viability was calculated relative to vehicle treated control.

[5] = tested on: H838-KDLKB1 and H838-LKB1 cells; assay: ATP measurement/cell viability (CellTiter-Glo), H838; type: cell-based, human; settings: 48 h; 2DG 10 mM, Tm 1.25 μg/ml, BFA 30 ng/ml; p<0.005
Method: as §3

[6] = tested on: H23-LKB1 and H23-KDLKB1 cells; assay: Caspase 3/7 activity assay; type: cell-based, human; settings: 5 ug/ml, 24 hours
Method: H23-LKB1 and H23-KDLKB1 cell were plated as described previously and treated for 24 hours with tunicamycin (5 ug/ml) or vehicle (DMSO). Activity of Caspases 3 and 7 were determined using a Promega Caspase-Glo 3/7 kit and data analyzed as described previously.

[7] = tested on: H838-KDLKB1 and H838-LKB1 cells; assay: Immunoblot of ER stress markers in H838-LKB1 and H838-KDLKB1 cells; type: cell-based, human; settings: 12 h; 2DG 10 mM, Tm 1.25 ug/ml, BFA 30 ng/ml
Method: as §1

[8] = Chronic dosing tolerability in vivo

CC(C)C[C@H](NC(=O)[C@H](Cc1ccccc1)NC(=O)c1cnccn1)B(O)O [bortezomib]
BiP expression in H23-KDLKB1 compared to H23 cells with reconstituted LKB1 [1]: 9 fold decrease | CHOP expression in H23-KDLKB1 compared to H23 cells with reconstituted LKB1 [1]: 1.6 fold decrease | Clonogenic survival / cytotoxicity in H23-KDLKB1 compared to H23-LKB1 [2]: reduced the survival of H23-KDLKB1 cells in a dose dependent manner

Cc1ccc(-c2cc(C(F)(F)F)nn2-c2ccc(S(N)(=O)=O)cc2)cc1 [celecoxib]
BiP expression in H23-KDLKB1 compared to H23 cells with reconstituted LKB1 [1]: 1.6 fold decrease | CHOP expression in H23-KDLKB1 compared to H23 cells with reconstituted LKB1 [1]: 1.3 fold decrease | Clonogenic survival / cytotoxicity in H23-KDLKB1 compared to H23-LKB1 [2]: reduced the survival of H23-KDLKB1 cells in a dose dependent manner

c1cc(-c2cnn3cc(-c4ccc(OCCN5CCCCC5)cc4)cnc23)ccn1 [compound C]
Expression of BiP and CHOP in response to 2DG (AMPK, H2009 LA cells): prevented expression of both BiP and CHOP

tunicamycin [Tm]
ROS levels in H838-KDLKB1, increase in intensity over H838-LKB1 [3]: 1.67 fold | Clonogenic cell survival of H838-KDLKB1 cells (H838-KDLKB1 cells): reduced cell survival | Clonogenic survival / cytotoxicity in H23-KDLKB1 compared to H23-LKB1 [2]: increased cytotoxicity | Cellular ATP in A427-KDLKB1 compared to A427 re-expressing LKB1 [4]: reduced ATP | Cellular ATP in H838-KDLKB1 compared to H838 re-expressing LKB1 [5]: reduced ATP | Activity of Caspases 3 and 7 (apoptosis) in H23-KDLKB1 versus H23-LKB1 [6]: increased levels of Caspase activity | Phosphorylated eIF2a in H838-KDLKB1 compared to H838-LKB1 cells [7]: increased levels of phosphorylated eIF2a | Tolerability of chronic dosing [8]: poorly tolerated
